Measured values as given in patent US9481676B2, “Azepino[4,5-B]indoles and methods of use” (Medivation Technologies, Inc., priority 2008, dated 2016).

Assays:
[1] = molecular target: T1, human recombinant serotonin (5-Hydroxytryptamine) 5-HT2C receptor (Homo sapiens, UniProt P28335); experiment: Serotonin 5-HT2C radioligand binding ([3H]Mesulergine); details: compound at 1 μM; read-out: Serotonin (1 μM) 5-HT2C, percent inhibition of specific binding
T1 construct: expressed in transfected cells; host or cells: CHO-K1 cells
T1 sequence (P28335 33-458): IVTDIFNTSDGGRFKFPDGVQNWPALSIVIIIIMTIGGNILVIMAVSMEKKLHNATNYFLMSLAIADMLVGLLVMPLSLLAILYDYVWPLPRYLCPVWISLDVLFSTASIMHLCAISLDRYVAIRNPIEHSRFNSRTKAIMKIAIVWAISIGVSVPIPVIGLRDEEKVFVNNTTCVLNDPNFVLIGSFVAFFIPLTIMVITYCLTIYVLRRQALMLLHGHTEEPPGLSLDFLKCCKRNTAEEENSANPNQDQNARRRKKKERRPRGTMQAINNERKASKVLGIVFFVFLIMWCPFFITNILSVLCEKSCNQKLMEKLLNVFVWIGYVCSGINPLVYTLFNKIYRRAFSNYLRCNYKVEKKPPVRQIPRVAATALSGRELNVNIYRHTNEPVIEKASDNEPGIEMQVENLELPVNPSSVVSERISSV
In short: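 Membranes from CHO-K1 cells expressing human 5-HT2C, incubated with 1 nM [3H]mesulergine for 60 min at 25 °C in 50 mM Tris-HCl pH 7.4 with ascorbic acid and pargyline.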

[2] = molecular target: T2, human recombinant dopamine D2L receptor (Homo sapiens, UniProt P14416); experiment: Dopamine D2L radioligand binding ([3H]Spiperone); details: compound at 1 μM; read-out: Dopamine (1 μM) D2L, percent inhibition of specific binding
T2 construct: expressed in transfected cells; host or cells: CHO cells
T2 sequence (P14416 whole entry): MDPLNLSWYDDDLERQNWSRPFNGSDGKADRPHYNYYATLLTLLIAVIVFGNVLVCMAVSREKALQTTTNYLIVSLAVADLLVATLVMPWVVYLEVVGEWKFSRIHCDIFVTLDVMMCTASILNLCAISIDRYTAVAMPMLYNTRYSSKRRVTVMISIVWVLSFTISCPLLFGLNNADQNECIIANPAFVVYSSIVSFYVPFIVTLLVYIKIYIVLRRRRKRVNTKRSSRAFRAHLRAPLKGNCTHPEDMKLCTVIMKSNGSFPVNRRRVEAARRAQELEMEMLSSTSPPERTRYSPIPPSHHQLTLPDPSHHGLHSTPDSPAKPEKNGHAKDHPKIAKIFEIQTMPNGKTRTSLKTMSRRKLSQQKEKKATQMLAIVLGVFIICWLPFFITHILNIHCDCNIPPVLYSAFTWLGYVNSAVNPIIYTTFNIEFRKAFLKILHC
In short: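 Binding measured by filtration and counting, reported as % inhibition of specific [3H]spiperone binding (0.16 nM tracer; 10 μM haloperidol for nonspecific). Compounds tested at ≤1 μM in 1% DMSO for 120 min at 25° C against CHO-expressed human D2L in pH 7.4 Tris-HCl buffer.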

[3] = molecular target: T3, human recombinant adrenergic α2A receptor (Homo sapiens, UniProt P08913); experiment: Adrenergic alpha2A radioligand binding ([3H]MK-912); details: compound at 1 μM; read-out: Adrenergic (1 μM) α2A, percent inhibition of specific binding
T3 construct: expressed in transfected cells; host or cells: insect Sf9 cells
T3 sequence (P08913 1-465): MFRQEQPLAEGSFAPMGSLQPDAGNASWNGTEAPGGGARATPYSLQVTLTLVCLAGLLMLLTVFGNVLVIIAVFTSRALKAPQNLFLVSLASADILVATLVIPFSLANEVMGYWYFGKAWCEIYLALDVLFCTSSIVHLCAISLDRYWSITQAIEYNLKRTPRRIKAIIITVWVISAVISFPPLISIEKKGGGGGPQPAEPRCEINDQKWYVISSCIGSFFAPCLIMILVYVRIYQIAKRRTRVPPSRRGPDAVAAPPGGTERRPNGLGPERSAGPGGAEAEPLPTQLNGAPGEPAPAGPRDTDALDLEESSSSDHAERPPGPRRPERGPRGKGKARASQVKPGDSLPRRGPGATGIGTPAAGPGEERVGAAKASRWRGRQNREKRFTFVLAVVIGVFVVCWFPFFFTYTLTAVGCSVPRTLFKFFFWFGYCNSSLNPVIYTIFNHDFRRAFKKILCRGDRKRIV
Description: To evaluate in radioligand binding assays the activity of compounds of the invention, human recombinant adrenergic α2A receptor expressed in insect Sf9 cells (Uhlen S et al. J Pharmacol Exp Ther. 271:1558, 1994) in a modified Tris-HCl buffer (50 mM Tris-HCl, pH 7.4, 12.5 mM MgCl2, 2 mM EDTA) was used. Compounds of invention were incubated with 1 nM [^3H]MK-912 for 60 min. at 25° C. MK912 is (2S-trans)-1,3,4,5′,6,6′,7,12b-octahydro-1′,3′-dimethyl-spiro[2 h-benzofuro [2,3-a]quinolizine-2,4′ (1′H)-pyrimidin]-2′ (3′H)-one hydrochloride Non-specific binding was estimated in the presence of 10 μM WB-4101 (2-(2,6-Dimethoxyphenoxyethyl)aminomethyl-1,4-benzodioxane hydrochloride). Receptor proteins were filtered and washed, the filters were then counted to determine [^3H]MK-912 specifically bound. Compounds were screened at 1 μM or lower, using 1% DMSO as vehicle. Biochemical assay results are presented as the percent inhibition of specific binding in Table 5.

[4] = molecular target: T4, human recombinant histamine H1 receptor (Homo sapiens, UniProt P35367); experiment: Histamine H1 radioligand binding ([3H]Pyrilamine); details: compound at 1 μM; read-out: Histamine Binding (1 μM) H1, percent inhibition of specific binding
T4 construct: expressed in transfected cells; host or cells: CHO cells
T4 sequence (P35367 whole entry): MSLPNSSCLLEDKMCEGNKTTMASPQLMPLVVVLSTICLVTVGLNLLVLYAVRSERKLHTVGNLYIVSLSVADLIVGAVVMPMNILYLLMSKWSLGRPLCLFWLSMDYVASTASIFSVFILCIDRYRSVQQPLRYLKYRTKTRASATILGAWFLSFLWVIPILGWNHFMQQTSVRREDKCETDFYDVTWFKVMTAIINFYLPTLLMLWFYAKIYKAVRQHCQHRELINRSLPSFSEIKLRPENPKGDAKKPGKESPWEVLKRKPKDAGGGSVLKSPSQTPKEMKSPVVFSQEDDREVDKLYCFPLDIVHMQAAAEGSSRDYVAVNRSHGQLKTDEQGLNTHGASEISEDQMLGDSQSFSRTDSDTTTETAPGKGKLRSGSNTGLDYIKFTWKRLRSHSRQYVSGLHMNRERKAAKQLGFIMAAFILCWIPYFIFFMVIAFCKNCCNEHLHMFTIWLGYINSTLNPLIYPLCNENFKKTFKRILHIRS
In short: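 Membranes from CHO cells expressing the receptor were incubated with compound and 1.2 nM [3H]pyrilamine for 180 min at 25 °C in 50 mM Tris-HCl pH 7.4 with MgCl2, NaCl and sucrose; 1 μM pyrilamine defined non-specific binding. Filter-bound radioactivity was counted.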

SMILES	inhibition at 1 µM [1]	inhibition at 1 µM [2]	inhibition at 1 µM [3]	inhibition at 1 µM [4]
Cc1ccc2c(c1)c1c(n2CC(O)c2ccc(C)nc2)CCN(C)CC1 (centres unmarked) [Compound No. 23, 2-(2,3,4,5-tetrahydro-3,9-dimethylazepino[4,5-b]indol-6(1H)-yl)-1-(6-methylpyridin-3-yl)ethanol]	37%	4%	42%	58%
CN1CCc2c(n(CC(O)c3ccccc3)c3ccc(Cl)cc23)CC1 (centres unmarked) [Compound No. 24, 2-(9-chloro-2,3,4,5-tetrahydro-3-methylazepino[4,5-b]indol-6(1H)-yl)-1-phenylethanol]	95%	41%	100%	100%
Cc1ccc2c(c1)c1c(n2CC(O)c2ccccc2)CCN(C)CC1 (centres unmarked) [Compound No. 25, 2-(2,3,4,5-tetrahydro-3,9-dimethylazepino[4,5-b]indol-6(1H)-yl)-1-phenylethanol]	94%	43%	100%	91%
Cc1ccc(C(O)Cn2c3c(c4cc(Cl)ccc42)CCN(C)CC3)cc1 (centres unmarked) [Compound No. 26, 2-(9-chloro-2,3,4,5-tetrahydro-3-methylazepino[4,5-b]indol-6(1H)-yl)-1-p-tolylethanol]	93%	65%	99%	97%
Cc1ccc(C(O)Cn2c3c(c4cc(C)ccc42)CCN(C)CC3)cc1 (centres unmarked) [Compound No. 27, 2-(2,3,4,5-tetrahydro-3,9-dimethylazepino[4,5-b]indol-6(1H)-yl)-1-p-tolylethanol]	91%	58%	98%	101%
Cc1ccc2c(c1)c1c(n2CCc2ccc(Cl)cc2)CCN(C)CC1 [Compound No. 28, 6-(4-chlorophenethyl)-1,2,3,4,5,6-hexahydro-3,9-dimethylazepino[4,5-b]indole]	94%	67%	96%	103%
CN1CCc2c(n(CCc3ccccc3Cl)c3ccc(Cl)cc23)CC1 [Compound No. 29, 6-(2-chlorophenethyl)-9-chloro-1,2,3,4,5,6-hexahydro-3-methylazepino[4,5-b]indole]	101%	67%	101%	98%
CN1CCc2c(n(CCc3ccc(Cl)cc3)c3ccc(Cl)cc23)CC1 [Compound No. 30, 6-(4-chlorophenethyl)-9-chloro-1,2,3,4,5,6-hexahydro-3-methylazepino[4,5-b]indole]	98%	53%	99%	102%
CC(C)NC(=O)Cn1c2c(c3cc(Cl)ccc31)CCN(C)CC2 [Compound No. 31, 2-(9-chloro-2,3,4,5-tetrahydro-3-methylazepino[4,5-b]indol-6(1H)-yl)-N-isopropylacetamide]	56%	4%	31%	14%
Cc1ccc2c(c1)c1c(n2CC(=O)N2CCCCC2)CCN(C)CC1 [Compound No. 32, 2-(2,3,4,5-tetrahydro-3,9-dimethylazepino[4,5-b]indol-6(1H)-yl)-1-(piperidin-1-yl)ethanone]	48%	-1%	39%	11%
C/C(=C\n1c2c(c3cc(C)ccc31)CCN(C)CC2)c1ccc(Cl)cc1 [Compound No. 33, 6-((E)-2-(4-chlorophenyl)prop-1-enyl)-1,2,3,4,5,6-hexahydro-3,9-dimethylazepino[4,5-b]indole]	86%	35%	97%	87%
C/C(=C\n1c2c(c3cc(C)ccc31)CCN(C)CC2)c1ccc(F)cc1 [Compound No. 34, 6-((E)-2-(4-fluorophenyl)prop-1-enyl)-1,2,3,4,5,6-hexahydro-3,9-dimethylazepino[4,5-b]indole]	97%	90%	94%	95%
C=C(Cn1c2c(c3cc(Cl)ccc31)CCN(C)CC2)c1ccc(Cl)cc1 [Compound No. 35, 9-chloro-6-(2-(4-chlorophenyl)allyl)-3-methyl-1,2,3,4,5,6-hexahydroazepino[4,5-b]indole]	91%	50%	93%	100%
C/C(=C\n1c2c(c3cc(Cl)ccc31)CCN(C)CC2)c1ccc(Cl)cc1 [Compound No. 36, 9-chloro-6-((E)-2-(4-chlorophenyl)prop-1-enyl)-1,2,3,4,5,6-hexahydro-3-methylazepino[4,5-b]indole]	83%	34%	96%	88%
CN1CCc2c(n(CC(=O)Nc3ccc(F)cc3)c3ccc(Cl)cc23)CC1 [Compound No. 37, 2-(9-chloro-2,3,4,5-tetrahydro-3-methylazepino[4,5-b]indol-6(1H)-yl)-N-(4-fluorophenyl) acetamide]	85%	9%	68%	13%
Cc1ccc2c(c1)c1c(n2CC(=O)N2CCOCC2)CCN(C)CC1 [Compound No. 38, 2-(2,3,4,5-tetrahydro-3,9-dimethylazepino[4,5-b]indol-6(1H)-yl)-1-morpholinoethanone]	98%	21%	77%	83%
Cc1ccc2c(c1)c1c(n2/C=C/c2ccc(F)cc2)CCN(C)CC1 [Compound No. 39, 6-(4-fluorostyryl)-1,2,3,4,5,6-hexahydro-3,9-dimethylazepino[4,5-b]indole]	97%	66%	98%	98%
CN1CCc2c(n(CC(O)c3ccccc3F)c3ccc(Cl)cc23)CC1 (centres unmarked) [Compound No. 40, 2-(9-chloro-2,3,4,5-tetrahydro-3-methylazepino[4,5-b]indol-6(1H)-yl)-1-(2-fluorophenyl)ethanol]	97%	46%	96%	101%
Cc1ccc2c(c1)c1c(n2CC(O)c2ccccc2F)CCN(C)CC1 (centres unmarked) [Compound No. 41, 1-(2-fluorophenyl)-2-(2,3,4,5-tetrahydro-3,9-dimethylazepino[4,5-b]indol-6(1H)-yl)ethanol]	99%	34%	95%	100%
CN1CCc2c(n(CC(O)c3ccncc3)c3ccc(Cl)cc23)CC1 (centres unmarked) [Compound No. 42, 2-(9-chloro-2,3,4,5-tetrahydro-3-methylazepino[4,5-b]indol-6(1H)-yl)-1-(pyridin-4-yl)ethanol]	101%	8%	87%	103%
